Laboratory results as given in patent US7138361B2, “Herbicidal heterocycles” (E. I. du Pont de Nemours and Company, priority 2000, dated 2006).

Columns and labels:
Format in all cases: in vivo
[1] = test system: Surinam grass (Brachiaria decumbens); assay: Test B postemergence; settings: 13 to 15 days
Description: (§1) Seeds selected from barnyardgrass (Echinochloa crus-galli), Surinam grass (Brachiaria decumbens), cocklebur (Xanthium strumarium), corn (Zea mays), crabgrass (Digitaria sanguinalis), giant foxtail (Setaria faberii), lambsquarters (Chenopodium album), morning glory (Ipomoea hederacea), pigweed (Amaranthus retroflexus), rice (Oryza saliva) and velvetleaf (Abutilon theophrasti) were planted and treated preemergence with test chemicals formulated in a non-phytotoxic solvent mixture which included a surfactant.
(§2) At the same time, plants selected from these crop and weed species and also blackgrass (Alopecurus myosuroides), wheat (Triticum aestivum) and wild oat (Avena fatua) were treated with postemergence applications of test chemicals formulated in the same manner. Plants ranged in height from 2 to 18 cm (1- to 4-leaf stage) for postemergence treatments. Plant species in the flooded paddy test consisted of rice (Oryza saliva), smallflower flatsedge (Cyperus difformis), duck salad (Heteranthera limosa) and barnyardgrass (Echinochloa crus-galli) grown to the 2-leaf stage for testing. Treated plants and controls were maintained in a greenhouse for 13 to 15 days, after which time all species were compared to controls and visually evaluated. Plant response ratings, summarized in Table B, are based on a scale of 0 to 100 where 0 is no effect and 100 is complete control. A dash (-) response means no test result.

[2] = test system: giant foxtail (Setaria faberii); assay: Test B postemergence; settings: 13 to 15 days
Description: as §1, §2

[3] = test system: velvetleaf (Abutilon theophrasti); assay: Test B postemergence; settings: Rate 500 g/ha, scale 0 to 100, 0 is no effect, 100 is complete control, 13 to 15 days
Description: as §1, §2

[4] = test system: corn (Zea mays); assay: Test B postemergence; settings: 13 to 15 days
Description: as §1, §2

[5] = test system: morning glory (Ipomoea hederacea); assay: Test B postemergence; settings: Rate 500 g/ha, scale 0 to 100, 0 is no effect, 100 is complete control, 13 to 15 days
Description: as §1, §2

[6] = test system: blackgrass (Alopecurus myosuroides); assay: Test B postemergence; settings: 13 to 15 days
Description: as §1, §2

[7] = test system: crabgrass (Digitaria sanguinalis); assay: Test B postemergence; settings: 13 to 15 days
Description: as §1, §2

[8] = test system: barnyardgrass (Echinochloa crus-galli); assay: Test B postemergence; settings: 13 to 15 days
Description: as §1, §2

[9] = test system: lambsquarters (Chenopodium album); assay: Test B postemergence; settings: Rate 500 g/ha, scale 0 to 100, 0 is no effect, 100 is complete control, 13 to 15 days
Description: as §1, §2

[10] = test system: wheat (Triticum aestivum); assay: Test B postemergence; settings: Rate 500 g/ha, scale 0 to 100, 0 is no effect, 100 is complete control, 13 to 15 days
Description: as §1, §2

[11] = test system: wild oat (Avena fatua); assay: Test B postemergence; settings: Rate 500 g/ha, scale 0 to 100, 0 is no effect, 100 is complete control, 13 to 15 days
Description: as §1, §2

[12] = test system: pigweed (Amaranthus retroflexus); assay: Test B postemergence; settings: Rate 500 g/ha, scale 0 to 100, 0 is no effect, 100 is complete control, 13 to 15 days
Description: as §1, §2

[13] = test system: smallflower flatsedge (Cyperus difformis); assay: Test C flooded paddy test; settings: for Flatsedge plant response rating: Flooded Paddy, scale 0 to 100, 0 no effect, 100 complete control; for Plant response rating, Flatsedge: scale 0 to 100 (0 no effect, 100 complete control)
Protocol: (§3) At the same time, plants selected from these crop and weed species and also winter barley (Hordeum vulgare), blackgrass (Alopecurus myosuroides), canary grass (Phalaris minor), chickweed (Stellaria media), downy brome (Bromus tectorum), green foxtail (Setaria viridis), Italian ryegrass (Lolium multiflorum), wheat (Triticum aestivum), wild oat (Avena fatua) and windgrass (Apera spica-venti) were treated with postemergence applications of some of the test chemicals formulated in the same manner. Plants ranged in height from 2 to 18 cm (1- to 4-leaf stage) for postemergence treatments. Plant species in the flooded paddy test consisted of rice (Oryza saliva), smallflower flatsedge (Cyperus difformis), duck salad (Heteranthera limosa) and barnyardgrass (Echinochloa crus-galli) grown to the 2-leaf stage for testing. Treated plants and controls were maintained in a greenhouse for 12 to 14 days, after which time all species were compared to controls and visually evaluated. Plant response ratings, summarized in Table C, are based on a scale of 0 to 100 where 0 is no effect and 100 is complete control. A dash (-) response means no test result.

[14] = test system: barnyardgrass (Echinochloa crus-galli); assay: Test C flooded paddy test; settings: for Barnyardgrass plant response rating: scale 0 to 100, 0 no effect, 100 complete control
Protocol: as §3

[15] = test system: rice (Oryza saliva); assay: Test C flooded paddy test; settings: for Rice plant response rating: scale 0 to 100, 0 no effect, 100 complete control
Protocol: as §3

[16] = test system: duck salad (Heteranthera limosa); assay: Test C flooded paddy test; settings: for Ducksalad plant response rating: scale 0 to 100, 0 no effect, 100 complete control
Protocol: as §3

[17] = test system: Surinam grass (Brachiaria decumbens); assay: Test B preemergence
Description: as §1, §2

[18] = test system: cocklebur (Xanthium strumarium); assay: Test B preemergence
Description: as §1, §2

[19] = test system: giant foxtail (Setaria faberii); assay: Test B preemergence
Description: as §1, §2

[20] = test system: velvetleaf (Abutilon theophrasti); assay: Test B preemergence
Description: as §1, §2

[21] = test system: corn (Zea mays); assay: Test B preemergence
Description: as §1, §2

[22] = test system: morning glory (Ipomoea hederacea); assay: Test B preemergence
Description: as §1, §2

[23] = test system: crabgrass (Digitaria sanguinalis); assay: Test B preemergence
Description: as §1, §2

[24] = test system: barnyardgrass (Echinochloa crus-galli); assay: Test B preemergence
Description: as §1, §2

[25] = test system: lambsquarters (Chenopodium album); assay: Test B preemergence
Description: as §1, §2

[26] = test system: rice (Oryza saliva); assay: Test B preemergence
Description: as §1, §2

[27] = test system: pigweed (Amaranthus retroflexus); assay: Test B preemergence
Description: as §1, §2

[28] = Rate 125 g/ha, scale 0 (no effect) to 100 (complete control)
[29] = Rate 500 g/ha, scale 0 to 100, 0 is no effect, 100 is complete control
[30] = flooded paddy test, Rate 62 g/ha
[31] = flooded paddy test, Rate 125 g/ha
[32] = flooded paddy test, Rate 62 g/ha, scale 0 to 100 (0 no effect, 100 complete control)
[33] = flooded paddy test, Rate 125 g/ha, scale 0 to 100 (0 no effect, 100 complete control)
[34] = Preemergence, Rate 500 g/ha, scale 0 to 100, 0 no effect, 100 complete control
[35] = preemergence, Rate 125 g/ha, scale of 0 to 100 where 0 is no effect and 100 is complete control, 13 to 15 days
[36] = flooded paddy test, Rate 62 g/ha, visually evaluated after 12 to 14 days, 0 = no effect, 100 = complete control
[37] = Flooded Paddy, Rate 1000 g/ha, scale 0 to 100
[38] = flooded paddy test, Rate 250 g/ha, scale 0 to 100 (0 no effect, 100 complete control)

Structure (SMILES): CCCCC(C)c1ccn(C2SCN(c3cccc(C(F)(F)F)c3)C2=O)n1 (centres unmarked) [Compound 103]
- Plant response rating, Surinam grass [1, 28]: 0
- Plant response rating, Surinam grass [1, 29]: 0
- Plant response rating, Foxtail, Giant [2, 28]: 0
- Plant response rating, Foxtail, Giant [2, 29]: 0
- Plant response rating, Velvetleaf [3]: 0
- Plant response rating, Corn [4, 28]: 0
- Plant response rating, Corn [4, 29]: 0
- Plant response rating, Morningglory [5]: 0
- Plant response rating, Blackgrass [6, 28]: 0
- Plant response rating, Blackgrass [6, 29]: 0
- Plant response rating, Crabgrass [7, 28]: 0
- Plant response rating, Crabgrass [7, 29]: 0
- Plant response rating, Barnyardgrass [8, 28]: 0
- Plant response rating, Barnyardgrass [8, 29]: 0
- Plant response rating, Lambsquarters [9]: 50
- Plant response rating, Wheat [10]: 0
- Plant response rating, Wild Oat [11]: 0
- Plant response rating, Pigweed [12]: 0
- Flatsedge plant response rating ([13]; Rate 250 g/ha): 100
- Flatsedge plant response rating ([13]; Rate 500 g/ha): 100
- Plant response rating, Flatsedge [13, 30]: 0
- Plant response rating, Flatsedge [13, 31]: 80
- Barnyardgrass plant response rating ([14]; Flooded Paddy, Rate 250 g/ha): 20
- Barnyardgrass plant response rating ([14]; Flooded Paddy, Rate 500 g/ha): 40
- Plant response rating, Barnyardgrass [14, 32]: 0
- Plant response rating, Barnyardgrass [14, 33]: 0
- Rice plant response rating ([15]; Flooded Paddy, Rate 250 g/ha): 20
- Rice plant response rating ([15]; Flooded Paddy, Rate 500 g/ha): 20
- Plant response rating, Rice [15, 32]: 0
- Ducksalad plant response rating ([16]; Flooded Paddy, Rate 250 g/ha): 0
- Ducksalad plant response rating ([16]; Flooded Paddy, Rate 500 g/ha): 90
- Plant response rating, Ducksalad [16, 32]: 0
- Plant response rating, Ducksalad [16, 33]: 0
- Plant response rating, Surinam grass [17, 34]: 0
- Plant response rating, Surinam grass [17, 35]: 0
- Plant response rating, Cocklebur [18, 34]: 0
- Plant response rating, Cocklebur [18, 35]: 0
- Plant response rating, Foxtail, Giant [19, 34]: 0
- Plant response rating, Foxtail, Giant [19, 35]: 0
- Plant response rating, Velvetleaf [20, 34]: 0
- Plant response rating, Velvetleaf [20, 35]: 0
- Plant response rating, Corn [21, 34]: 0
- Plant response rating, Corn [21, 35]: 0
- Plant response rating, Morningglory [22, 34]: 0
- Plant response rating, Morningglory [22, 35]: 0
- Plant response rating, Crabgrass [23, 34]: 60
- Plant response rating, Crabgrass [23, 35]: 0
- Plant response rating, Barnyardgrass [24, 34]: 0
- Plant response rating, Barnyardgrass [24, 35]: 0
- Plant response rating, Lambsquarters [25, 34]: 100
- Plant response rating, Lambsquarters [25, 35]: 100
- Plant response rating, Rice [26, 34]: 0
- Plant response rating, Rice [26, 35]: 0
- Plant response rating, Pigweed [27, 34]: 0
- Plant response rating, Pigweed [27, 35]: 0

Structure (SMILES): CCCCC(C)c1ccn(C2OCN(c3cccc(OC(F)(F)F)c3)C2=O)n1 (centres unmarked) [Compound 97]
- Plant response rating, Surinam grass [1, 28]: 0
- Plant response rating, Foxtail, Giant [2, 28]: 0
- Plant response rating, Corn [4, 28]: 0
- Plant response rating, Blackgrass [6, 28]: 0
- Plant response rating, Crabgrass [7, 28]: 0
- Plant response rating, Barnyardgrass [8, 28]: 0
- Flatsedge plant response rating ([13]; Rate 500 g/ha): 90
- Plant response rating, Flatsedge [13, 30]: 30
- Plant response rating, Flatsedge [13, 31]: 90
- Barnyardgrass plant response rating ([14]; Flooded Paddy, Rate 500 g/ha): 100
- Plant response rating, Barnyardgrass [14, 32]: 0
- Plant response rating, Barnyardgrass [14, 33]: 40
- Rice plant response rating ([15]; Flooded Paddy, Rate 500 g/ha): 20
- Plant response rating, Rice [15, 32]: 0
- Plant response rating, Rice [15, 33]: 20
- Ducksalad plant response rating ([16]; Flooded Paddy, Rate 500 g/ha): 0
- Plant response rating, Ducksalad [16, 32]: 0
- Plant response rating, Ducksalad [16, 33]: 0
- Plant response rating, Surinam grass [17, 35]: 0
- Plant response rating, Cocklebur [18, 35]: 0
- Plant response rating, Foxtail, Giant [19, 35]: 20
- Plant response rating, Velvetleaf [20, 35]: 0
- Plant response rating, Corn [21, 35]: 0
- Plant response rating, Morningglory [22, 35]: 0
- Plant response rating, Crabgrass [23, 35]: 20
- Plant response rating, Barnyardgrass [24, 35]: 30
- Plant response rating, Lambsquarters [25, 35]: 20
- Plant response rating, Rice [26, 35]: 0
- Plant response rating, Pigweed [27, 35]: 0

Structure (SMILES): CC(C)(C)C1=NN(C2CCN(c3cccc(C(F)(F)F)c3)C2=O)CC1 (centres unmarked) [Compound 135]
- Flatsedge plant response rating ([13]; Rate 500 g/ha): 90
- Flatsedge plant response rating ([13]; rate of this column group stands in head line r653, not shown (group before Rate 500 g/ha)): 100
- Plant response rating, Flatsedge [13, 31]: 20
- Plant response rating, Flatsedge ([13]; flooded paddy test, Rate 250 g/ha): 90
- Plant response rating (scale 0 to 100), Flatsedge [13, 36]: 0
- Plant response rating, Barnyardgrass [14, 37]: 30
- Barnyardgrass plant response rating ([14]; Flooded Paddy, Rate 500 g/ha): 20
- Plant response rating, Barnyardgrass [14, 33]: 0
- Plant response rating, Barnyardgrass [14, 38]: 0
- Plant response rating (scale 0 to 100), Barnyardgrass [14, 36]: 0
- Plant response rating, Rice [15, 37]: 0
- Rice plant response rating ([15]; Flooded Paddy, Rate 500 g/ha): 0
- Plant response rating, Rice [15, 33]: 0
- Plant response rating, Rice [15, 38]: 0
- Plant response rating (scale 0 to 100), Rice [15, 36]: 0
- Plant response rating, Ducksalad [16, 37]: 30
- Ducksalad plant response rating ([16]; Flooded Paddy, Rate 500 g/ha): 0
- Plant response rating, Ducksalad [16, 33]: 0
- Plant response rating, Ducksalad [16, 38]: 0
- Plant response rating (scale 0 to 100), Ducksalad [16, 36]: 0
